Test results taken from paper PMC5548701, “Selective targeting of melanoma using N-(2-diethylaminoethyl) 4-[^18F]fluoroethoxy benzamide (4-[^18F]FEBZA): a novel PET imaging probe” (EJNMMI Research, 2017).
Entries after “also recorded” stand apart in the source; their conditions may differ.

Assays:
[1] = biodistribution in normal mice with no tumor implants; format: in vivo, C57BL/6 mice; details: 1 h
Protocol: (§1) The biodistribution studies were performed in mice bearing B16F1 (1 h n = 5; 2 h n = 6), C-32 (1 h n = 3; 2 h n = 3), and HT-29 (1 h n = 3; 2 h n = 3) tumor xenografts. The tumor-bearing mice were injected with ~40 μCi of 4-[^18F]FEBZA. A separate group of normal C57BL/6 mice with no tumor implants (1 h n = 3; 2 h n = 3) was also injected with ~40 μCi of 4-[^18F]FEBZA to study the distribution characteristics of 4-[^18F]FEBZA in the absence of tumors. At 1 h and 2 h post-injection, the mice were euthanized, and the tissues of interest were removed, rinsed with PBS, weighed, and counted for radioactivity contents using a γ-counter.

[2] = test system: B16F1 melanoma cells; assay: in vitro cell binding, influence of incubation time and temperature; format: cell-based, murine; details: 2.5 × 10^5 cells/well, percent of total radioactivity added
Protocol: The in vitro cell binding was assessed by growing B16F1 cells in culture flasks to 80–90% confluence, trypsinizing, washing in PBS (pH 7.4), aliquoting into 12-well plates and allowing adherence to the wells overnight. Initially, we studied the influence of the incubation time and temperature on the binding to B16F1 melanoma cells. For this study, 12-well plates containing ~2.5 × 10^5 cells/well were incubated at 0, 22, and 37 °C with 4-[^18F]FEBZA in quadruplicate sets for 15, 30, 60, 120, and 180 min. After the incubation, the media were removed, and each well was washed with fresh ice-cold media (2 × 2 mL). The adherent cells were removed by lysing cells in 500 μL of PBS containing 10% Triton X-100 (Sigma-Aldrich, St. Louis, MO). The combined washes and lysate were analyzed for radioactivity content using a γ-counter.

[3] = test system: HT-29 tumor; assay: microPET imaging in mouse bearing HT-29 tumor; format: in vivo, mice
Protocol: (§2) In vivo imaging of 4-[^18F]FEBZA in mice bearing B16F1 (n = 2) and HT-29 (n = 1) tumor was performed using a P4 microPET™ scanner (Concorde Microsystems, Inc., Knoxville, TN). After administering ~100 μCi of 4-[^18F]FEBZA via tail-vein injection, whole body PET scans were acquired in list mode. The images were reconstructed using filtered back projection with attenuation correction. Regions Of Interest (ROIs) were drawn on select organs using the summed image from the entire scan acquisition session, and the data were analyzed using ASIPro software (Siemens Preclinical Solutions, Knoxville, TN). The time activity curves (TACs) were generated from the list mode data reconstructed into multiple 5-min frames.

[4] = test system: HT-29 human colorectal adenocarcinoma tumor xenografts; assay: biodistribution in mice bearing HT-29 tumor xenografts; format: in vivo, athymic nu/nu mice; details: for tumor-to-brain tissue ratio: HT-29 group; for Adrenals %IA/g tissue (mean ± SD) / Blood %IA/g tissue (mean ± SD) / Bone %IA/g tissue (mean ± SD) / Brain %IA/g tissue (mean ± SD) / Heart %IA/g tissue (mean ± SD) / Kidneys %IA/g tissue (mean ± SD) / Liver %IA/g tissue (mean ± SD) / Lung %IA/g tissue (mean ± SD) / Muscles %IA/g tissue (mean ± SD) / Pancreas %IA/g tissue (mean ± SD) / Sm. Intestine %IA/g tissue (mean ± SD) / Spleen %IA/g tissue (mean ± SD): HT-29 tumor mice; for Tumor %IA/g tissue (mean ± SD): HT-29 tumor
Protocol: B16F1 melanoma cells, HT-29 human colorectal adenocarcinoma cells, and C-32 amelanotic melanoma cells were purchased from the American Type Culture Collection (ATCC, Rockville, MD). B16F1 murine melanotic melanoma cells were maintained in Dulbecco’s modified Eagles medium supplemented with 10% fetal calf-serum, 2 mM L-glutamine, and 1 mM pyruvate. HT-29 and C-32 cells were maintained in RPMI supplemented with 10% fetal calf serum and 2 mM L-glutamine. C57BL/6 and athymic nu/nu mice were purchased from Charles River Laboratories (Charles River Laboratories, Boston, MA). All animal studies were performed using an IACUC-approved protocol, and the work was performed under the guidelines established by Wake Forest University. The cells were grown to confluency, harvested, washed with phosphate-buffered saline and then were suspended in a 1:1 mixture of phosphate-buffered saline and Matrigel (BD Life Sciences, San Jose, CA) at a concentration of 5 × 10^6 cells/mL. For subcutaneous tumor xenografts, […] in the right flank with 100 μL of a suspension of B16F1 cells, and female athymic nu/nu mice were injected in the right flank with 100 μL of HT-29 cells or C-32 cells.
as §1

[5] = test system: B16F1 cells; assay: internalization assay (acid wash); format: cell-based, murine; details: 37 °C
Protocol: Next, we evaluated the binding characteristics of 4-[^18F]FEBZA to B16F1 cells through internalization experiments. The cells were treated with a low pH buffer to sequester membrane-bound radioactivity (acid wash-releasable) from the internalized (acid wash-resistant) fraction. For this assay, 4-[^18F]FEBZA was added to 12-well plates with each well containing 4 × 10^5 B16F1cells/well (in quadruplicate), and the plates were incubated at 37 °C for 15, 30, 60, 120, and 180 min. After the incubation, the media were removed, each well was washed with ice-cold PBS (2 × 1 mL), and the washes were collected in the tubes. Subsequently, each well was gently treated with 1 mL of an ice-cold mildly acidic medium (sodium acetate buffer, pH 4.5) to remove surface-bound radioactivity, and the rinses were collected in tubes (acidic wash). The adherent cells were then lysed using 500 μL of 10% Triton X-100 in PBS, and the lysate was transferred into tubes. The total radioactivity in each of the lysate, acidic wash, and the PBS wash was measured using a γ-counter.

[6] = test system: B16F1 tumor; assay: microPET imaging in mice bearing B16F1 tumor; format: in vivo
Protocol: as §2

Question: With `CCN(CC)CCNC(=O)c1ccc(OCC[18F])cc1` [4-[^18F]FEBZA, N-(2-diethylaminoethyl) 4-[^18F]fluoroethoxybenzamide] as the compound, how does the bone uptake ([1]; mice with no tumor) read?
Answer: Its bone uptake is 3.23 ± 0.24 %IA/g.

Question: What about the blood uptake ([1]; mice without implanted tumor) of the same compound?
Answer: Its blood uptake is 2.81 ± 0.31 %IA/g.

Question: And the brain uptake ([1]; mice without implanted tumor)?
Answer: Its brain uptake is 2.46 ± 0.41 %IA/g.

Question: What about the liver uptake ([1]; mice without implanted tumor) of the same compound?
Answer: The liver uptake was 4.11 ± 0.63 %IA/g.

Question: And the lungs uptake ([1]; mice without implanted tumor)?
Answer: The lungs uptake was 2.52 ± 0.47 %IA/g.

Question: What about the muscle uptake ([1]; mice without implanted tumor) of the same compound?
Answer: Its muscle uptake is 1.10 ± 0.13 %IA/g.

Question: And the “total binding to B16F1 cells” value ([2]; 22 °C)?
Answer: Its value is 44.45 ± 0.61%.

Question: And the “total binding to B16F1 cells” value ([2]; 37 °C, 1 h incubation)?
Answer: The value was 60.03 ± 0.48%.

Question: What about the “standardized uptake value (SUV) of tumor from microPET images” value [3] of the same compound?
Answer: Its value is 0.25 ± 0.04.

Question: What about the “visibility of tumor on microPET scans” value [3] of the same compound?
Answer: Its value is “not visible; also recorded: not discernable”.

Question: And the tumor-to-brain tissue ratio ([4]; 1 h)?
Answer: The tumor-to-brain tissue ratio was 2.19 ± 0.04.

Question: And the tumor-to-brain tissue ratio ([4]; 2 h)?
Answer: Its tumor-to-brain tissue ratio is 2.04 ± 0.19.

Question: What about the tumor-to-muscle ratio ([4]; HT-29 mice group, 2 h) of the same compound?
Answer: The tumor-to-muscle ratio was 2.21 ± 0.17.

Question: And the “Adrenals %IA/g tissue (mean ± SD)” value ([4]; 1 h post-injection)?
Answer: Its value is 1.07 ± 0.08 %IA/g tissue.

Question: And the “Blood %IA/g tissue (mean ± SD)” value ([4]; 1 h post-injection)?
Answer: The value was 2.80 ± 0.26 %IA/g tissue.

Question: What about the “Bone %IA/g tissue (mean ± SD)” value ([4]; 1 h post-injection) of the same compound?
Answer: The value was 3.83 ± 0.39 %IA/g tissue.

Question: What about the “Brain %IA/g tissue (mean ± SD)” value ([4]; 1 h post-injection) of the same compound?
Answer: The value was 1.68 ± 0.18 %IA/g tissue.

Question: And the “Heart %IA/g tissue (mean ± SD)” value ([4]; 1 h post-injection)?
Answer: The value was 2.52 ± 0.12 %IA/g tissue.

Question: And the “Kidneys %IA/g tissue (mean ± SD)” value ([4]; 1 h post-injection)?
Answer: Its value is 2.91 ± 0.24 %IA/g tissue.

Question: And the “Liver %IA/g tissue (mean ± SD)” value ([4]; 1 h post-injection)?
Answer: The value was 4.84 ± 0.95 %IA/g tissue.

Question: And the “Lung %IA/g tissue (mean ± SD)” value ([4]; 1 h post-injection)?
Answer: The value was 2.19 ± 0.33 %IA/g tissue.

Question: What about the “Muscles %IA/g tissue (mean ± SD)” value ([4]; 1 h post-injection) of the same compound?
Answer: Its value is 1.61 ± 0.28 %IA/g tissue.

Question: What about the “Pancreas %IA/g tissue (mean ± SD)” value ([4]; 1 h post-injection) of the same compound?
Answer: Its value is 2.41 ± 0.26 %IA/g tissue.

Question: And the “Sm. Intestine %IA/g tissue (mean ± SD)” value ([4]; 1 h post-injection)?
Answer: Its value is 1.98 ± 0.62 %IA/g tissue.

Question: And the “Spleen %IA/g tissue (mean ± SD)” value ([4]; 1 h post-injection)?
Answer: Its value is 2.11 ± 0.25 %IA/g tissue.

Question: What about the “Adrenals %IA/g tissue (mean ± SD)” value ([4]; 2 h post-injection) of the same compound?
Answer: The value was 0.91 ± 0.19 %IA/g tissue.

Question: And the “Blood %IA/g tissue (mean ± SD)” value ([4]; 2 h post-injection)?
Answer: The value was 2.29 ± 0.23 %IA/g tissue.

Question: And the “Bone %IA/g tissue (mean ± SD)” value ([4]; 2 h post-injection)?
Answer: Its value is 5.71 ± 1.11 %IA/g tissue.

Question: And the “Brain %IA/g tissue (mean ± SD)” value ([4]; 2 h post-injection)?
Answer: The value was 1.52 ± 0.28 %IA/g tissue.

Question: What about the “Heart %IA/g tissue (mean ± SD)” value ([4]; 2 h post-injection) of the same compound?
Answer: Its value is 2.19 ± 0.37 %IA/g tissue.

Question: What about the “Kidneys %IA/g tissue (mean ± SD)” value ([4]; 2 h post-injection) of the same compound?
Answer: The value was 2.08 ± 0.29 %IA/g tissue.

Question: What about the “Liver %IA/g tissue (mean ± SD)” value ([4]; 2 h post-injection) of the same compound?
Answer: Its value is 2.50 ± 0.29 %IA/g tissue.

Question: What about the “Lung %IA/g tissue (mean ± SD)” value ([4]; 2 h post-injection) of the same compound?
Answer: Its value is 1.63 ± 0.16 %IA/g tissue.

Question: What about the “Muscles %IA/g tissue (mean ± SD)” value ([4]; 2 h post-injection) of the same compound?
Answer: Its value is 1.40 ± 0.24 %IA/g tissue.

Question: And the “Pancreas %IA/g tissue (mean ± SD)” value ([4]; 2 h post-injection)?
Answer: Its value is 1.56 ± 0.18 %IA/g tissue.

Question: What about the “Sm. Intestine %IA/g tissue (mean ± SD)” value ([4]; 2 h post-injection) of the same compound?
Answer: The value was 1.42 ± 0.10 %IA/g tissue.

Question: What about the “Spleen %IA/g tissue (mean ± SD)” value ([4]; 2 h post-injection) of the same compound?
Answer: Its value is 1.51 ± 0.12 %IA/g tissue.

Question: What about the “Tumor %IA/g tissue (mean ± SD)” value ([4]; 1 h post-injection) of the same compound?
Answer: The value was 3.68 ± 0.47 %IA/g tissue.

Question: What about the “Tumor %IA/g tissue (mean ± SD)” value ([4]; 2 h post-injection) of the same compound?
Answer: Its value is 3.07 ± 0.36 %IA/g tissue.

Question: What about the “internalized fraction of cell-associated radioactivity” value [5] of the same compound?
Answer: Its value is “Majority of the cell-associated radioactivity is internalized”.

Question: And the “time at which internalized fraction reached plateau” value [5]?
Answer: The value was “about 120 min”.

Question: What about the “cell surface bound fraction” value ([5]; all time points (15-180 min)) of the same compound?
Answer: Its value is under 1%.

Question: And the “time post-injection by which tumor is clearly visible on microPET images” value ([6]; B16F1 melanoma tumor)?
Answer: Its value is at most 10 min.

Question: And the “standardized uptake value (SUV) of tumor from microPET images” value ([6]; B16F1 tumor)?
Answer: The value was 1.53 ± 1.01.

Question: What about the “radioactivity level in B16F1 tumor from microPET time activity curve” value ([6]; by 47 min) of the same compound?
Answer: Its value is “over 3.5 %IA/g tumor”.
